Source: ChEMBL document CHEMBL4043215, “Synergistic antiproliferative effect of chemo-phototherapy: Synthesis and photodynamic activity evaluation of novel Chlorin e6-artesunate conjugates as antiproliferative agents” (Bioorg Med Chem Lett, 2017)
pIC50: −log10 of the molar value. The source made the active and inactive calls. The calls are words filed in the database; no cut-off is given here.

What was measured:
HepG2 [1] = assay: Induction of intracellular ROS production in human HepG2 cells at 30 uM incubated for 10 hrs followed by DCF-DA addition for 20 mins in dark and irradiated with LED light at 1.7 J/cm'2 by fluorescence assay; type: functional, cell-based
[2] = Drug uptake in human HepG2 cells at 30 uM measured up to 10 hrs by fluorescence assay; type: ADME, cell-based; conditions: hepg2, 10 h
HepG2 [3] = assay: Phototoxicity against human HepG2 cells assessed as reduction in cell viability up to 100 uM irradiated with LED light at 1.7 J/cm'2 measured after 12 hrs by MTT assay; type: functional, cell-based
[4] = Induction of singlet oxygen production in Tris-Hcl buffer after irradiation with LED light at 1.7 J/cm'2 at 100 uM at pH 7.4 by ATTA-Eu3+ probe based fluorescence microscopy
[5] = Dark toxicity against human HepG2 cells assessed as reduction in cell viability incubated overnight by MTT assay; type: cell-based
HepG2 [6] = assay: Phototoxicity against human HepG2 cells assessed as reduction in cell viability preincubated overnight followed by irradiation with LED light at 1.7 J/cm'2 for 10 mins measured post overnight incubation by MTT assay; type: functional, cell-based; conditions: HepG2, light or radiation study

## C=CC1=C(C)/C2=C/C3=NC(=C(/CC(=O)NCCNC(=O)OC(C)(C)C)c4[nH]c(c(C)c4C(=O)O)/C=C4\N=C(CC1N2)C(C)=C4CC)/[C@@H](CCC(=O)O)[C@@H]3C (stereo not given in full)
HepG2 [1]
  Activity: Active
[2]
  Drug uptake: Active

## C=Cc1c(C)c2cc3nc(c(CC(=O)NCCNC(=O)CCC(=O)O[C@@H]4O[C@@H]5O[C@@]6(C)CC[C@H]7[C@H](C)CC[C@@H]([C@H]4C)[C@@]57OO6)c4[nH]c(cc5nc(cc1[nH]2)C(C)=C5CC)c(C)c4C(=O)NCCNC(=O)CCC(=O)O[C@@H]1O[C@@H]2O[C@@]4(C)CC[C@H]5[C@H](C)CC[C@@H]([C@H]1C)[C@@]25OO4)[C@@H](CCC(=O)NCCNC(=O)CCC(=O)O[C@@H]1O[C@@H]2O[C@@]4(C)CC[C@H]5[C@H](C)CC[C@@H]([C@H]1C)[C@@]25OO4)[C@@H]3C
HepG2 [1]
  Activity: Active
HepG2 [3]
  Activity: Active
[4]
  Activity: inactive
[5]
  pIC50: 4.89
HepG2 [6]
  pIC50: 6.10
[2]
  Drug uptake: Active

## C=Cc1c(C)c2cc3nc(c(CC(=O)O)c4[nH]c(cc5nc(cc1[nH]2)C(C)=C5CC)c(C)c4C(=O)NCCNC(=O)CCC(=O)O[C@@H]1O[C@@H]2O[C@@]4(C)CC[C@H]5[C@H](C)CC[C@@H]([C@H]1C)[C@@]25OO4)[C@@H](CCC(=O)O)[C@@H]3C
HepG2 [1]
  Activity: Active
HepG2 [3]
  Activity: Active
[4]
  Activity: Active
[5]
  pIC50: 4.44
HepG2 [6]
  pIC50: 5.74
[2]
  Drug uptake: Active

## C=Cc1c(C)c2cc3nc(c(CC(=O)NCCNC(=O)CCC(=O)O[C@@H]4O[C@@H]5O[C@@]6(C)CC[C@H]7[C@H](C)CC[C@@H]([C@H]4C)[C@@]57OO6)c4[nH]c(cc5nc(cc1[nH]2)C(C)=C5CC)c(C)c4C(=O)O)[C@@H](CCC(=O)O)[C@@H]3C
HepG2 [1]
  Activity: Active
HepG2 [3]
  Activity: Active
[4]
  Activity: Active
[5]
  pIC50: 4.24
HepG2 [6]
  pIC50: 5.62
[2]
  Drug uptake: Active

## C[C@H]1[C@H](OC(=O)CCC(=O)O)O[C@@H]2O[C@@]3(C)CC[C@H]4[C@H](C)CC[C@@H]1[C@@]24OO3 [ARTESUNATE]
HepG2 [1]
  Activity: Active
HepG2 [3]
  Activity: Active
[5]
  pIC50: 5.19
HepG2 [6]
  pIC50: 5.11

## C=Cc1c(C)c2cc3nc(c(CC(=O)O)c4[nH]c(cc5nc(cc1[nH]2)C(C)=C5CC)c(C)c4C(=O)O)[C@@H](CCC(=O)NCCNC(=O)CCC(=O)O[C@@H]1O[C@@H]2O[C@@]4(C)CC[C@H]5[C@H](C)CC[C@@H]([C@H]1C)[C@@]25OO4)[C@@H]3C
HepG2 [1]
  Activity: Active
HepG2 [3]
  Activity: Active
[4]
  Activity: Active
[5]
  pIC50: 4.54
HepG2 [6]
  pIC50: 5.82
[2]
  Drug uptake: Active
